Tests used:
[1] = target: T1, USP30 (Homo sapiens, UniProt Q70CQ3); assay: High-throughput screening, Ub-RhoMP, single dose 1.25 µM; type: biochemical; design: USP30 CD (57-517); purchased Ubiquigent 64-0057-050; settings: crude in-plate synthesized compound, 1.25 µM assuming full conversion
T1 sequence (Q70CQ3 57-517): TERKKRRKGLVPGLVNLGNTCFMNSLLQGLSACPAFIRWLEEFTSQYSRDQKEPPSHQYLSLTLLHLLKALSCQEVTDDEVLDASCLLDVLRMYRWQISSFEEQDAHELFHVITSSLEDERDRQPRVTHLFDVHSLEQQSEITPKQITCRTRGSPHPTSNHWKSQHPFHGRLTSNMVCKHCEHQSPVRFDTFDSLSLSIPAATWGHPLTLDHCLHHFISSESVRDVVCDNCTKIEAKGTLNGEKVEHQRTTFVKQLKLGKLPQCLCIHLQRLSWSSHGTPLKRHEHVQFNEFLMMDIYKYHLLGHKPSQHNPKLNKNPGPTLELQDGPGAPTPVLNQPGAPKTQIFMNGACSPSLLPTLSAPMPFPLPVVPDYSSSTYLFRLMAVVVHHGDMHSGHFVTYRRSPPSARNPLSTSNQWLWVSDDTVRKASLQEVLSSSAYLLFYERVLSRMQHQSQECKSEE
Description: (§1) Since the in‐plate synthesis was conducted in 1536‐well Echo plates, the compounds could readily be transferred from these plates into 1536‐well assay plates using acoustic liquid dispensing (Figure 2a) and subjected to HTS. We screened the whole 7536 compound library against a panel of twelve enzymes, including three DUBs from the UCH family, two DUBs from the OTU family, five DUBs from the USP family, plus ISG15 protease USP18, and SUMO protease SENP1. Each compound was tested at a single dose of 1.25 µM, assuming full conversion (10 mM in DMSO of the formed products) during the in‐plate synthesis, using the fluorogenic assay described above. […] The compounds are sorted by the amine building blocks (BB1‐16), and within each BB, sorted by carboxylic acid (CA1‐471), thereby providing a comprehensive and systematic overview of the overall inhibition by each BB and CA combination. Some interesting patterns can be obtained from this map. […] Indeed, BB10 is the privileged scaffold for UCHL1 as it originates from UCHL1 inhibitor 5 (Figure 1). […] On the other hand, OTUD1 and USP32 show a much higher hit rate, and this is even more pronounced for USP30 and ISG15 protease mUSP18, each showing many active compounds distributed over several BB's.
(§2) Purified recombinant enzymes used in this study
(§3) High-throughput screening
(§4) The screens were performed at room temperature in “flat bottom, non-treated, black […]
(§5) µM. The compounds (10 nL each) were transferred from the 1 mM daughter plates to the […]
(§6) Four wells containing DMSO
(§7) (10 nL) and four wells containing NEM (10 mM final concentration) were used in each plate […]
(§8) solution (1.33x final concentration) was added to each well, followed by incubation for 30 min.
(§9) Next, 2 µL of a substrate solution (4x final concentration) was added to each well (Ub-RhoMP[2]
(§10) After 1h or 2h incubation the
(§11) The percentage inhibition was calculated for each well using the […]
(§12) Where FIx is the fluorescence intensity of each well, FIpos is the average fluorescence intensity of the positive (NEM) control wells, and FIneg is the average fluorescence intensity of the negative (DMSO) control wells.

[2] = target: USP16 (Homo sapiens, UniProt Q9Y5T5); assay: as above; type: biochemical; design: (22-823); His-tag (N); made in house; settings: crude in-plate synthesized compound, 1.25 µM assuming full conversion
Sequence of USP16 (Q9Y5T5 22-823): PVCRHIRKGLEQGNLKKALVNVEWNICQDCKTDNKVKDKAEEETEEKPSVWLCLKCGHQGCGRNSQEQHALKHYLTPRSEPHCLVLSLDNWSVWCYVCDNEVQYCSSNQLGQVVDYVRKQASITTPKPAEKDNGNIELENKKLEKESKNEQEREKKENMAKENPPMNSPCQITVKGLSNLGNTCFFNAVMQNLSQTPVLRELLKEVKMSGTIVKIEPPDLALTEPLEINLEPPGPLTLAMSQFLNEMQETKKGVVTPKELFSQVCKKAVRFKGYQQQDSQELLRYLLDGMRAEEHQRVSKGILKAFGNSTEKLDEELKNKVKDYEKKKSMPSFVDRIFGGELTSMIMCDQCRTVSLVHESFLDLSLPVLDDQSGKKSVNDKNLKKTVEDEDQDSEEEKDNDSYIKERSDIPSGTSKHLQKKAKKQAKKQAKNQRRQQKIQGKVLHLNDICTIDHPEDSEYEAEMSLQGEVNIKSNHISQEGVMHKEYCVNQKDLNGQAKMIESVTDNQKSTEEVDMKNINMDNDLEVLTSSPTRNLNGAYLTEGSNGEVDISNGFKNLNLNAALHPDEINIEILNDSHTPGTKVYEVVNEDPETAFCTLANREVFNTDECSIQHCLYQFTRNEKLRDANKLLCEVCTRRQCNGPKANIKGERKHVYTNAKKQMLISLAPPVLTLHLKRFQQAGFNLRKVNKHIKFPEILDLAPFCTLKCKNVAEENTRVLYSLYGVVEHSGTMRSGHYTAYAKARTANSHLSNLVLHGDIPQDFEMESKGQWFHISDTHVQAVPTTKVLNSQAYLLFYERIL
Description: as §1, §2, §3, §4, §5, §6, §7, §8, §9, §10, §11, §12

[3] = target: T2, mUSP18 (Mus musculus, UniProt Q9WTV6); assay: High-throughput screening, ISG15ct-RhoMP, single dose 1.25 µM; type: biochemical, murine; settings: crude in-plate synthesized compound, 1.25 µM assuming full conversion; read-out: %inhibition mUSP18
T2 construct: (46-368); His-tag (N); made in house
T2 sequence (Q9WTV6 46-368): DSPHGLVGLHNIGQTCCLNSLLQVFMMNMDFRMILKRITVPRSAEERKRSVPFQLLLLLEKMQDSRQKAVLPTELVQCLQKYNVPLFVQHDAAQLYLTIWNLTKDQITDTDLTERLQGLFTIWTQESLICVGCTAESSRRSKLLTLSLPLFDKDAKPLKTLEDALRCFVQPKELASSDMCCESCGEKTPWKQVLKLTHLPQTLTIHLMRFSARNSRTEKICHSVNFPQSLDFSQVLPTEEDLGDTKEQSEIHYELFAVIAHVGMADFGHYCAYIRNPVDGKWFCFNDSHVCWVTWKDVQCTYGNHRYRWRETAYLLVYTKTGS

[4] = target: T3, SENP1 (Homo sapiens, UniProt Q9P0U3); assay: High-throughput screening, single dose 1.25 µM; type: biochemical; settings: crude in-plate synthesized compound, 1.25 µM assuming full conversion
T3 sequence (Q9P0U3 419-644): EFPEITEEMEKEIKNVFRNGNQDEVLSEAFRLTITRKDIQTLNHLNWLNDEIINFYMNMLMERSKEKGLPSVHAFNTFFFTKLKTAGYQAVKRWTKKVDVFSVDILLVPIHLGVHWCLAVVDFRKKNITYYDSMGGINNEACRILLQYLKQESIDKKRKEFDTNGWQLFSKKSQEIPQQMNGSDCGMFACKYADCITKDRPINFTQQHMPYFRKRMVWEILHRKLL
Description: as §1, §2, §3, §4, §5, §6, §7, §8, §9, §10, §11, §12

[5] = target: T4, OTUD1 (Homo sapiens, UniProt Q5VV17); assay: High-throughput screening, Ub-RhoMP, single dose 1.25 µM; type: biochemical; settings: crude in-plate synthesized compound, 1.25 µM assuming full conversion
T4 sequence (Q5VV17 287-481): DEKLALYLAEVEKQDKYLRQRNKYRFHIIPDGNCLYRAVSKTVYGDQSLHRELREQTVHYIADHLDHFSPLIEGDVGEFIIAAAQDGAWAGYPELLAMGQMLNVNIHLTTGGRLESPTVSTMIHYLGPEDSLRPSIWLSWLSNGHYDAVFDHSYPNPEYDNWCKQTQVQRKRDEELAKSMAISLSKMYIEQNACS
Description: as §1, §2, §3, §4, §5, §6, §7, §8, §9, §10, §11, §12

[6] = target: T5, UCHL3 (Homo sapiens, UniProt P15374); assay: as above; type: biochemical; settings: crude in-plate synthesized compound, 1.25 µM assuming full conversion
T5 construct: (1-230); made in house
T5 sequence (P15374 1-230): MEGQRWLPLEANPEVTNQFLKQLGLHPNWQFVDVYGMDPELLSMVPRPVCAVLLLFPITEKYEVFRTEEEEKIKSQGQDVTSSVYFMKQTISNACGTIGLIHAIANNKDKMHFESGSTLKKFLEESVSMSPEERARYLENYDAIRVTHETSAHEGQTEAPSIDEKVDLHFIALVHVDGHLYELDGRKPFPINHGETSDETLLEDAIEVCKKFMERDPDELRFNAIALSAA
Description: as §1, §2, §3, §4, §5, §6, §7, §8, §9, §10, §11, §12

[7] = target: T6, UCHL1 (Homo sapiens, UniProt P09936); assay: as above; type: biochemical; settings: crude in-plate synthesized compound, 1.25 µM assuming full conversion
T6 construct: (1-223); made in house
T6 sequence (P09936 1-223): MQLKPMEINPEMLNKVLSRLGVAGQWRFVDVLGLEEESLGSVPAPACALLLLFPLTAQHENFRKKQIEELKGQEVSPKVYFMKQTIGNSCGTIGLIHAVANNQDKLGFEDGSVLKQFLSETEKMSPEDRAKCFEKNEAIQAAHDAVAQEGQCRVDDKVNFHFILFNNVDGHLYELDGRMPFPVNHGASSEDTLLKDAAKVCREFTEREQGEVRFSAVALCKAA
Description: as §1, §2, §3, §4, §5, §6, §7, §8, §9, §10, §11, §12

%inhibition USP30 [1]: 36.0%
%inhibition USP16 [2]: 7.7%
inhibition at 1.25 µM [3]: 13.4%
%inhibition SENP1 [4]: 13.2%
%inhibition OTUD1 [5]: -3.9%
%inhibition UCHL3 [6]: 16.3%
%inhibition UCHL1 [7]: 11.2%
SMILES: N#CN1CC[C@@H](NC(=O)C(Cc2c[nH]cn2)NS(=O)(=O)c2ccc(Cl)cc2)C1 (stereo partly shown) [BB01CA91]

Source: publication PMC12668310, “High‐Throughput Synthesis and Screening of a Cyanimide Library Identifies Selective Inhibitors of ISG15‐Specific Protease mUSP18” (Angewandte Chemie (International Ed. in English), 2025)
